Assay results taken from paper PMC11456916, “A screen for cell envelope stress uncovers an inhibitor of prolipoprotein diacylglyceryl transferase, Lgt, in Escherichiacoli” (iScience, 2024).
Values after ≈ are worked out from the molar mass of the structure shown. Like-named read-outs stand apart in the source and are kept apart here.

Key:
[1] = test system: E. coli ΔtolC-pore harboring CRISPRi plasmids targeting lgt; assay: CRISPRi lgt knockdown MIC (low-copy enhancement); assay type: cell-based; details: two gRNAs targeting lgt, 100 ng/mL aTc
Description: We next turned to genetic approaches to confirm the mechanism of action of MAC-0452936. […] To that end, we screened the E. coli CRISPRi collection in the ΔtolC-pore genetic background with a sub-inhibitory concentration of MAC-0452936 and measured the fitness of all 356 CRISPRi mutants (Figure 4C and Data S4). […] Depletion of Lgt by CRISPRi provided supporting evidence that MAC-0452936 targeted Lgt in E. coli; however, we sought to confirm this observation using a parallel genetic approach. We hypothesized that MAC-0452936 potency would also be affected by high-copy expression of lgt. To that end, we introduced either an arabinose inducible copy of lgt supplied on the pCHAP9231 plasmid[48] or the pBAD19s plasmid as a control into E. coli ΔtolC-pore and tested the potency of MAC-0452936 (Figure 4E). Induction of lgt expression with arabinose suppressed the activity of MAC-0452936 by about 8-fold. […] To test this hypothesis, we constructed E. coli ΔlgtΔtolC-pore with pCHAP9231[48] so that lgt expression was driven solely by arabinose from the plasmid. […] To test this observation with MAC-0452936, we introduced an lpp deletion into our screening strain E. coli ΔtolC-pore and assessed the activity of our Lgt inhibitor in this mutant background. […]

[2] = molecular target: T1, prolipoprotein diacylglyceryl transferase, Lgt (Escherichia coli, UniProt P60955); assay: In vitro Lgt biochemical assay (phosphatidylglycerol and Pal-IAAC peptide substrates); design: species or system E. coli
T1 construct: Expression, purification, and in vitro Lgt biochemical assay were conducted as described by Diao et al; made in house
T1 sequence (P60955 whole entry): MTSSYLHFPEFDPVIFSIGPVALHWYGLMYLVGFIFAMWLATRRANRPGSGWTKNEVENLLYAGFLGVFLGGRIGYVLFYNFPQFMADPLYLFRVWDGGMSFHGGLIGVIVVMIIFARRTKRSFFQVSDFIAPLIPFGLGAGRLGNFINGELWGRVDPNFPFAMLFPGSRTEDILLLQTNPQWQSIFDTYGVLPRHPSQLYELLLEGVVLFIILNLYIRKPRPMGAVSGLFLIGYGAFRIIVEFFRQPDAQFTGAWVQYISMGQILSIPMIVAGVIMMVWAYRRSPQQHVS
Description: With both genetic and phenotypic evidence supporting MAC-0452936 inhibiting Lgt in E. coli, we next investigated whether MAC-0452936 could inhibit Lgt activity in vitro. Recently, a biochemical assay for Lgt activity was developed using phosphatidylglycerol and Pal-IAAC peptide as substrates.[12] […] As similar results were obtained using two different Lgt enzyme preparations, the inhibition observed by MAC-0452936 was not dependent on the preparation of the lipid matrix. Together, we present genetic, phenotypic, and biochemical evidence that MAC-0452936 inhibits the growth of E. coli through inhibition of Lgt. MAC-0452936 represents a previously undiscovered small molecule inhibitor of bacterial Lgt, and the oxime ester represents a promising chemical scaffold for antibiotic discovery.
Expression, purification, and in vitro Lgt biochemical assay were conducted as described by Diao et al.[12]

E. coli ΔtolC-pore = assay: MIC assay, E. coli ΔtolC-pore; assay type: cell-based; details: LB, 18 h
Procedure: (§1) For MIC assays, cultures of bacteria were grown in LB broth. Overnight cultures were diluted (1:100) into fresh LB media and grown to the mid-log phase of growth (OD600 ∼0.5). Subcultures were then normalized to an OD600 of 0.1, and diluted (1:5000) into assay media. Assay plates were then incubated for 18 h at 37°C, then OD600 was measured using a Biotek Neo plate reader.

E. coli BW25113 = assay: MIC assay, wild-type E. coli with or without SPR741; assay type: cell-based; details: for reduction in potency relative to MAC-0452936 (1): MIC against E. coli with SPR741
Procedure: We next sought to determine whether we could achieve growth inhibition of wild-type E. coli using MAC-0452936 and an antibiotic adjuvant. […] To that end, we determined the MIC of MAC-0452936 against wild-type E. coli in the presence and absence of a sub-MIC concentration of SPR741 (Figure S8B). […] We leveraged this combination to characterize the spectrum of activity of MAC-0452936 against a panel of Gram-negative pathogens (Table 2). In the presence of 8 μg/mL SPR741, we observed MAC-0452936 activity against the clinical E. coli isolates C0244 and CFT073 at 2 μg/mL as well as against Salmonella Typhimurium SL1344 at 4 μg/mL.
as §1

[3] = Lgt purified using DDM lipid matrix, read-out: in vitro Lgt inhibition DDM-Lgt IC50
[4] = Lgt purified using amphipol lipid matrix, read-out: in vitro Lgt inhibition Amph-Lgt IC50

SMILES	sensitization upon depletion of Lgt with CRISPRi constructs [1]	IC50 [2, 3] [µM]	IC50 [2, 4] [µM]	MIC, E. coli ΔtolC-pore (E. coli ΔtolC-pore) [µg/mL]	MIC, E. coli BW25113 (WT) + 8 μg/mL SPR741 (E. coli BW25113) [µg/mL]	reduction in potency relative to MAC-0452936 (1) (E. coli BW25113) [fold]	activity against E. coli with SPR741 (E. coli BW25113; in words)
CO[C@H]1/C=C/O[C@@]2(C)Oc3c(C)c(O)c4c(O)c(c(/C=N/N5CCN(C)CC5)c(O)c4c3C2=O)NC(=O)/C(C)=C\C=C\[C@H](C)[C@H](O)[C@@H](C)[C@@H](O)[C@@H](C)[C@H](OC(C)=O)[C@@H]1C [Rifampicin]	not to either of the negative control antibiotics	–	–	–	–	–	–
COc1ccc(C(=O)O/N=C(\c2cccs2)C(C)(C)C)c(F)c1 [compound 2, (Z)-2-Pivaloylthiophene O-(2-fluoro-4-methoxybenzoyl) oxime]	–	0.77	0.32	0.5 (≈ 1.49 µM)	–	–	–
CC(C)(C)/C(=N/OC(=O)c1cccnc1)c1cccs1 [compound 3, (Z)-2-Pivaloylthiophene O-(pyridine-3-oyl) oxime]	–	3.54	2.72	1 (≈ 3.47 µM)	–	–	–
CC(C)(C)/C(=N/OC(=O)c1cncs1)c1cccs1 [compound 4, (Z)-2-Pivaloylthiophene O-(thiazol-5-ylcarbonyl) oxime]	–	7.68	4.92	2 (≈ 6.79 µM)	2	–	–
Cn1cncc1C(=O)O/N=C(\c1cccs1)C(C)(C)C [compound 5, (Z)-2-Pivaloylthiophene O-(1-methyl-1H-imidazol-5-oyl) oxime]	–	7.78	5.91	4 (≈ 13.7 µM)	4	–	–
COc1ccc(C(=O)O/N=C(\c2cccs2)C(C)(C)C)cc1N [compound 6, (Z)-2-Pivaloylthiophene O-(3-amino-4-methoxybenzoyl) oxime]	–	57.3	95.5	32 (≈ 96.3 µM)	8	–	–
COc1cc(OC)cc(C(=O)O/N=C(\c2cccs2)C(C)(C)C)c1 [compound 7, (Z)-2-Pivaloylthiophene O-(3,5-dimethoxybenzoyl) oxime]	–	58.7	175	> 32	4	–	–
COc1ccc(CC(=O)O/N=C(\c2cccs2)C(C)(C)C)cc1 [compound 16, (Z)-2-Pivaloylthiophene O-(2-(4-methoxyphenyl)acetyl) oxime]	–	–	–	–	4	8	–
CC(C)(C)C(=NOS(N)(=O)=O)c1cccs1 [compound 17, 2-Pivaloylthiophene O-(sulfamoyl) oxime]	–	–	–	–	–	–	inactive
COc1ccc(C(=O)O/N=C(\c2cncs2)C(C)(C)C)cc1 [compound 20, (Z)-5-Pivaloylthiazole O-(4-methoxybenzoyl) oxime]	–	–	–	–	–	≥ 32	–
COc1ccc(C(=O)O/N=C(\c2cccnc2)C(C)(C)C)cc1 [compound 22, (Z)-3-Pivaloylpyridine O-(4-methoxybenzoyl) oxime]	–	–	–	–	–	≥ 32	–
